Assay results taken from PubChem BioAssay (NCI).
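Each compound was tested at five concentrations against cells in 96-well plates for 48 hours. Abbreviation: GI50, concentration required for 50% inhibition of growth. TGI marks complete inhibition of growth.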

Legend:
Assay in all cases: inhibition of tumour cell growth, NCI panel, 48 h
HCC-2998 colon = test system: HCC-2998 colon
MDA-MB-231 breast = test system: MDA-MB-231 breast
SW-620 colon = test system: SW-620 colon
IGROV1 ovarian = test system: IGROV1 ovarian
RXF 393 renal = test system: RXF 393 renal
KM12 colon = test system: KM12 colon
HOP-62 NSCLC = test system: HOP-62 NSCLC
T-47D breast = test system: T-47D breast
LOX IMVI melanoma = test system: LOX IMVI melanoma
TK-10 renal = test system: TK-10 renal
OVCAR-5 ovarian = test system: OVCAR-5 ovarian
EKVX NSCLC = test system: EKVX NSCLC
K-562 leukemia = test system: K-562 leukemia
OVCAR-8 ovarian = test system: OVCAR-8 ovarian
NCI-H522 lung = test system: NCI-H522 lung
HCT-15 colon = test system: HCT-15 colon
SF-539 CNS = test system: SF-539 CNS
HT29 colon = test system: HT29 colon
NCI/ADR-RES ovarian = test system: NCI/ADR-RES ovarian
HCT-116 colon = test system: HCT-116 colon
DU-145 prostate = test system: DU-145 prostate
SN12C renal = test system: SN12C renal
MCF7 breast = test system: MCF7 breast
BT-549 breast = test system: BT-549 breast
NCI-H226 lung = test system: NCI-H226 lung
OVCAR-4 ovarian = test system: OVCAR-4 ovarian
HS 578T breast = test system: HS 578T breast
SK-MEL-5 melanoma = test system: SK-MEL-5 melanoma
OVCAR-3 ovarian = test system: OVCAR-3 ovarian
ACHN renal = test system: ACHN renal
U251 CNS = test system: U251 CNS
SK-MEL-28 melanoma = test system: SK-MEL-28 melanoma
SNB-75 CNS = test system: SNB-75 CNS
SK-MEL-2 melanoma = test system: SK-MEL-2 melanoma
SR leukemia = test system: SR leukemia
UACC-62 melanoma = test system: UACC-62 melanoma
MALME-3M melanoma = test system: MALME-3M melanoma
HL-60(TB) leukemia = test system: HL-60(TB) leukemia
NCI-H460 lung = test system: NCI-H460 lung
MDA-MB-468 breast = test system: MDA-MB-468 breast
MOLT-4 leukemia = test system: MOLT-4 leukemia
COLO 205 colon = test system: COLO 205 colon
PC-3 prostate = test system: PC-3 prostate
A549 NSCLC = test system: A549 NSCLC
CCRF-CEM leukemia = test system: CCRF-CEM leukemia
SNB-19 CNS = test system: SNB-19 CNS
MDA-MB-435 = test system: MDA-MB-435
SF-268 CNS = test system: SF-268 CNS
786-0 renal = test system: 786-0 renal
M14 melanoma = test system: M14 melanoma
A498 renal = test system: A498 renal
NCI-H23 lung = test system: NCI-H23 lung
SF-295 CNS = test system: SF-295 CNS
CAKI-1 renal = test system: CAKI-1 renal
RPMI-8226 leukemia = test system: RPMI-8226 leukemia
UO-31 renal = test system: UO-31 renal
HOP-92 NSCLC = test system: HOP-92 NSCLC
SK-OV-3 ovarian = test system: SK-OV-3 ovarian
UACC-257 melanoma = test system: UACC-257 melanoma

## COc1ccc(/C=C/C(=O)c2ccc(N3CCN(C)CC3)cc2)c(C(F)(F)F)c1
HCC-2998 colon
  GI50: 12 µM
  TGI: 24.3 µM
MDA-MB-231 breast
  GI50: 16.8 µM
  TGI: 30.5 µM
SW-620 colon
  GI50: 11.2 µM
  TGI: 23.9 µM
IGROV1 ovarian
  GI50: 15.4 µM
  TGI: 29 µM
RXF 393 renal
  GI50: 4.12 µM
  TGI: 18.9 µM
KM12 colon
  GI50: 11 µM
  TGI: 24.9 µM
HOP-62 NSCLC
  GI50: 19.3 µM
  TGI: 37 µM
T-47D breast
  GI50: 13.7 µM
  TGI: 34.6 µM
LOX IMVI melanoma
  GI50: 8.56 µM
  TGI: 20.9 µM
TK-10 renal
  GI50: 17.7 µM
  TGI: 32.8 µM
OVCAR-5 ovarian
  GI50: 16.2 µM
  TGI: 29.7 µM
EKVX NSCLC
  GI50: 12.7 µM
  TGI: 25.4 µM
K-562 leukemia
  GI50: 2.96 µM
  TGI: 22.1 µM
OVCAR-8 ovarian
  GI50: 20.8 µM
  TGI: 49.3 µM
NCI-H522 lung
  GI50: 15.9 µM
  TGI: 31.9 µM
HCT-15 colon
  GI50: 4.61 µM
  TGI: 16.5 µM
SF-539 CNS
  GI50: 14.2 µM
  TGI: 27.2 µM
HT29 colon
  GI50: 4.88 µM
  TGI: 22.3 µM
NCI/ADR-RES ovarian
  GI50: 13.2 µM
  TGI: 26.4 µM
HCT-116 colon
  GI50: 5.61 µM
  TGI: 39 µM
DU-145 prostate
  GI50: 14.9 µM
  TGI: 31.2 µM
SN12C renal
  GI50: 13.3 µM
  TGI: 26.4 µM
MCF7 breast
  GI50: 4.6 µM
  TGI: 19.5 µM
BT-549 breast
  GI50: 14.5 µM
  TGI: 29.1 µM
NCI-H226 lung
  GI50: 12.4 µM
  TGI: 28.3 µM
OVCAR-4 ovarian
  GI50: 15.5 µM
  TGI: 34.4 µM
HS 578T breast
  GI50: 14.9 µM
  TGI: 46.5 µM
SK-MEL-5 melanoma
  GI50: 7.97 µM
  TGI: 20.6 µM
OVCAR-3 ovarian
  GI50: 14.4 µM
  TGI: 29.3 µM
ACHN renal
  GI50: 15.1 µM
  TGI: 28.3 µM
U251 CNS
  GI50: 11.7 µM
  TGI: 34.4 µM
SK-MEL-28 melanoma
  GI50: 14.7 µM
  TGI: 27.9 µM
SNB-75 CNS
  GI50: 11.7 µM
  TGI: 24.5 µM
SK-MEL-2 melanoma
  GI50: 17.5 µM
  TGI: 32.7 µM
SR leukemia
  GI50: 6.74 µM
  TGI: > 100 µM
UACC-62 melanoma
  GI50: 14.1 µM
  TGI: 27 µM
MALME-3M melanoma
  GI50: 12.9 µM
  TGI: 25.6 µM
HL-60(TB) leukemia
  GI50: 4.87 µM
  TGI: 24.7 µM
NCI-H460 lung
  GI50: 14 µM
  TGI: 27.9 µM
MDA-MB-468 breast
  GI50: 3.54 µM
  TGI: 13.9 µM
MOLT-4 leukemia
  GI50: 9.11 µM
  TGI: 32.8 µM
COLO 205 colon
  GI50: 15.6 µM
  TGI: 35.5 µM
PC-3 prostate
  GI50: 13.2 µM
  TGI: 40.4 µM
A549 NSCLC
  GI50: 13.2 µM
  TGI: 30.1 µM
CCRF-CEM leukemia
  GI50: 7.61 µM
  TGI: 53.1 µM
SNB-19 CNS
  GI50: 14.8 µM
  TGI: 27.9 µM
MDA-MB-435
  GI50: 11.3 µM
  TGI: 24.7 µM
SF-268 CNS
  GI50: 18.9 µM
  TGI: 41 µM
786-0 renal
  GI50: 12.5 µM
  TGI: 37.7 µM
M14 melanoma
  GI50: 14.4 µM
  TGI: 34.5 µM
A498 renal
  GI50: 16.5 µM
  TGI: 30.8 µM
NCI-H23 lung
  GI50: 11.2 µM
  TGI: 23.2 µM
SF-295 CNS
  GI50: 13.9 µM
  TGI: 27.2 µM
CAKI-1 renal
  GI50: 14.2 µM
  TGI: 27.5 µM
RPMI-8226 leukemia
  GI50: 3.4 µM
  TGI: 47.7 µM
UO-31 renal
  GI50: 12.3 µM
  TGI: 24.7 µM
HOP-92 NSCLC
  GI50: 10.1 µM
  TGI: 25.8 µM
SK-OV-3 ovarian
  GI50: 16.7 µM
  TGI: 33.5 µM
UACC-257 melanoma
  GI50: 15.3 µM
  TGI: 30.8 µM
